Test [1] has as its target T1, Mouse inducible nitric oxide synthase (miNOS) (Mus musculus, UniProt P29477).
T1 construct: was prepared from an extract of LPS-treated RAW 264.7 cells and partially purified by DEAE-Sepharose chromatography; endogenous in cells; host or cells: LPS-treated RAW 264.7 cells (extract, partially purified by DEAE-Sepharose)
Description: Citrulline Assay for Nitric Oxide Synthase, mouse inducible NOS. Conditions: mouse iNOS; 30 μM L-arginine, 37° C., 15 minutes. It is filed as biochemical.
Description: Nitric oxide synthase activity was measured by monitoring the conversion of [3H]-arginine to [3H]-citrulline. Mouse inducible nitric oxide synthase (miNOS) was prepared from an extract of LPS-treated RAW 264.7 cells and partially purified by DEAE-Sepharose chromatography. […] Enzyme and inhibitors were incubated at 37° C. for 15 minutes in a reaction volume of 100 μL with the following components added to start the reaction: 50 mM Tris (pH 7.6), 1 mg/ml bovine serum albumin, 1 mM DTT, 2 mM CaCl2, 10 μM FAD, 10 μM tetrahydrobiopterin, 30 μM L-arginine containing L-[2,3-3H]-arginine at 300 cpm/pmole and 1 mM NADPH. […] The reaction was terminated by addition of cold stop buffer containing 10 mM EGTA, 100 mM HEPES, pH 5.5 and 1 mM citrulline. [3H]-Citrulline was separated by chromatography on Dowex 50W X-8 cation exchange resin and radioactivity determined with a liquid scintillation counter.

Test [2] addresses T2, Rat brain constitutive nitric oxide synthase (rnNOS) (Rattus norvegicus, UniProt P29476).
T2 construct: an extract of rat cerebellum and partially purified by DEAE-Sepharose chromatography; from tissue; host or cells: rat cerebellum (extract, partially purified by DEAE-Sepharose)
Description: Citrulline Assay for Nitric Oxide Synthase, rat brain constitutive NOS. The format is biochemical. Conditions: rat brain cNOS; 50 nM calmodulin, 30 μM L-arginine, 37° C., 15 minutes. The procedure:
Nitric oxide synthase activity was measured by monitoring the conversion of [3H]-arginine to [3H]-citrulline. Mouse inducible nitric oxide synthase (miNOS) was prepared from an extract of LPS-treated RAW 264.7 cells and partially purified by DEAE-Sepharose chromatography. Rat brain constitutive nitric oxide synthase (rnNOS) was preparedfrom an extract of rat cerebellum and partially purified by DEAE-Sepharose chromatography. Enzyme and inhibitors were incubated at 37° C. for 15 minutes in a reaction volume of 100 μL with the following components added to start the reaction: 50 mM Tris (pH 7.6), 1 mg/ml bovine serum albumin, 1 mM DTT, 2 mM CaCl2, 10 μM FAD, 10 μM tetrahydrobiopterin, 30 μM L-arginine containing L-[2,3-3H]-arginine at 300 cpm/pmole and 1 mM NADPH. For constitutive NOS, 50 nM calmodulin was also added. The reaction was terminated by addition of cold stop buffer containing 10 mM EGTA, 100 mM HEPES, pH 5.5 and 1 mM citrulline. [3H]-Citrulline was separated by chromatography on Dowex 50W X-8 cation exchange resin and radioactivity determined with a liquid scintillation counter.

For test [3], the system named is intracellular iNOS in RAW 264.7 cells. Description: Raw Cell Nitrite Assay. The format is cell-based. To be noted: Mus musculus, RAW264.7, LPS-induced RAW 264.7 cells, 30 μM L-arginine, 1 h at 37° C. The protocol:
RAW 264.7 cells are plated to confluency on a 96-well tissue culture plate grown overnight (17 h) in the presence of LPS to induce NOS. A row of 3-6 wells were left untreated and served as controls for subtraction of nonspecific background. The media was removed from each well and the cells are washed twice with Krebs-Ringers-Hepes (25 mM, pH 7.4) with 2 mg/ml glucose. The cells are then placed on ice and incubated with 50 μL of buffer containing L-arginine (30 μM) +/- inhibitors for 1 h. The assay is initiated by warming the plate to 37° C. in a water bath for 1 h. Production of nitrite by intracellular iNOS is linear with time. To terminate the cellular assay, the plate of cells is placed on ice and the nitrite-containing buffer removed and analyzed for nitrite using a previously published fluorescent determination for nitrite. All values are the average of triplicate wells and are compared to a background-subtracted induced set of cells (100% value).

T1 sequence (P29477 whole entry): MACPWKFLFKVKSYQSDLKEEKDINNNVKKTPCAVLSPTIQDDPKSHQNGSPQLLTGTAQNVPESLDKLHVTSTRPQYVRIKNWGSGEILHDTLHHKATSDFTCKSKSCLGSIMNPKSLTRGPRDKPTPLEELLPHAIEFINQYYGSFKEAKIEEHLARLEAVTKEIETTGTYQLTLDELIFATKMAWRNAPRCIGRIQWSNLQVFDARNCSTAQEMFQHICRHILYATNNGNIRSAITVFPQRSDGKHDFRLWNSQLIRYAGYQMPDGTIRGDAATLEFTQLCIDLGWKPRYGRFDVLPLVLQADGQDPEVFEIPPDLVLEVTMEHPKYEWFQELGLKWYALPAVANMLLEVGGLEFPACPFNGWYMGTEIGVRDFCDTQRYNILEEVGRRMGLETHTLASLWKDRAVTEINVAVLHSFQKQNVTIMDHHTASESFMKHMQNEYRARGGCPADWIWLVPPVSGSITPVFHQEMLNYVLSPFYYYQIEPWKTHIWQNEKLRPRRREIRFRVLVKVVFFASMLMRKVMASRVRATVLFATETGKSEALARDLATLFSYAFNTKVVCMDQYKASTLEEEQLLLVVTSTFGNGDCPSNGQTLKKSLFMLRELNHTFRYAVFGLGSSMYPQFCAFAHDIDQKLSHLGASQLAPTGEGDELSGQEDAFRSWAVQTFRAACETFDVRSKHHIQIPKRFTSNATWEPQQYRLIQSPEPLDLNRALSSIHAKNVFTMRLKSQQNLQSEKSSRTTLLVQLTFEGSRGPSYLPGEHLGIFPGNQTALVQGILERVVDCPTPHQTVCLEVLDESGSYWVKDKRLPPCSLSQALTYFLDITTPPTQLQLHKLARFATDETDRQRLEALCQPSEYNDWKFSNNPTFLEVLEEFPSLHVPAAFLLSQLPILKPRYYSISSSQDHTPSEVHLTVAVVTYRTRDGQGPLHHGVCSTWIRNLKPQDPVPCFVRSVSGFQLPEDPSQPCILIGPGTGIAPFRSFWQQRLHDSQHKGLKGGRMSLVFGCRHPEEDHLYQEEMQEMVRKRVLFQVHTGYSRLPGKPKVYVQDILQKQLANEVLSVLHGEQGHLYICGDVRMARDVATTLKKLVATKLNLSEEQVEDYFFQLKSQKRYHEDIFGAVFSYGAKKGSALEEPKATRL

In the case of `N=C(N)C1CC1` [Example 2, Cyclopropylcarbamidine], the IC50 in test [1] stood at 2.3 µM; in test [2], 10 µM; in test [3], 46 µM.

For `CC(C)C(=N)N` [Example 3, Isopropylcarbamidine], the figures for the IC50 in test [1] and in test [2] were 27 µM and 31 µM, respectively.

Turning to `CCCC(=N)N` [Example 4, 1-Propylcarbamidine], the results for the IC50 in test [1] and in test [2] were 2 µM and 7.3 µM, respectively.

For `CCC(=N)N` [Example 5, Ethylcarbamidine], the IC50 in test [1] amounted to 16 µM; in test [2] it was 44 µM.

With `N=C(N)c1cccs1` [Example 8, 2-Amidinothiophene], the IC50 in test [1] was 1 µM; in test [2] it was 1.3 µM; in test [3], 7 µM.

For `N=C(N)c1ccco1` [Example 9, 2-Amidinofuran], the values for the IC50 in test [1], in test [2] and in test [3] were 3 µM, 3 µM and 158 µM, respectively.

Take `CSCC(=N)N` [Example 11]: the half-maximal inhibitory concentration (IC50) in test [1] came out at 2 µM; in test [2], 7 µM; in test [3] it was 60 µM.

Broadly, the IC50 is the concentration that gives 50% inhibition. Lower therefore signals greater potency.

The values above are taken from patent publication US5821267A, “Amidino derivatives useful as nitric oxide synthase inhibitors” (priority 1996, dated 1998).
